{"source": "patent US20090082337A1", "about": "“Compositions Comprising Quinolone and Methods for Treating or Controlling Infections” (priority 2007, published 2009)", "test_in_all_cases": "In vitro anti-bacterial activity (MIC90), ophthalmologic clinical bacteria isolates", "format_in_all_cases": "cell-based", "key": {"Streptococcus pneumoniae": {"tested_on": "Streptococcus pneumoniae", "settings": "Gram-positive"}, "Haemophilus influenzae": {"tested_on": "Haemophilus influenzae", "settings": "Gram-negative"}, "Propionibacterium acnes": {"tested_on": "Propionibacterium acnes", "settings": "Cutibacterium acnes, Gram-positive"}, "[1]": {"tested_on": "Ofloxacin-resistant Staphylococcus aureus", "settings": "antibiotic-resistant organisms"}, "Staphylococcus aureus": {"tested_on": "Staphylococcus aureus", "settings": "Gram-positive"}, "[2]": {"tested_on": "Penicillin-resistant Streptococcus pneumoniae", "settings": "antibiotic-resistant organisms"}, "[3]": {"tested_on": "Gentamycin-resistant Pseudomonas aeruginosa", "settings": "antibiotic-resistant organisms"}, "Corynebacterium species": {"tested_on": "Corynebacterium species", "settings": "Gram-positive", "source_text": "As disclosed above, most of these bacteria strains are also relevant to infections of the ear and upper respiratory tract."}, "Pseudomonas aeruginosa": {"tested_on": "Pseudomonas aeruginosa", "settings": "Gram-negative"}, "Moraxella species": {"tested_on": "Moraxella species", "settings": "Gram-negative"}, "[4]": {"tested_on": "Gentamycin-resistant Staphylococcus aureus", "settings": "antibiotic-resistant organisms"}, "[5]": {"tested_on": "Coagulase-negative Staphylococcus", "settings": "Gram-positive"}}}
{"smiles": "CCn1cc(C(=O)O)c(=O)c2cc(F)c(N3CCNCC3)cc21", "note": "[Norfloxacin]", "values": [{"measurement": "MIC90", "setting": "Streptococcus pneumoniae", "result": 8, "unit": "mg/L"}, {"measurement": "MIC90", "setting": "Haemophilus influenzae", "result": "≤ 0.06", "unit": "mg/L"}, {"measurement": "MIC90", "setting": "Propionibacterium acnes", "result": 4, "unit": "mg/L"}, {"measurement": "MIC90", "setting": "[1]", "result": "> 128", "unit": "mg/L"}, {"measurement": "MIC90", "setting": "Staphylococcus aureus", "result": "> 128", "unit": "mg/L"}, {"measurement": "MIC90", "setting": "[2]", "result": 8, "unit": "mg/L"}, {"measurement": "MIC90", "setting": "[3]", "result": 128, "unit": "mg/L"}, {"measurement": "MIC90", "setting": "Corynebacterium species", "result": 16, "unit": "mg/L"}, {"measurement": "MIC90", "setting": "Pseudomonas aeruginosa", "result": 4, "unit": "mg/L"}, {"measurement": "MIC90", "setting": "Moraxella species", "result": 0.25, "unit": "mg/L"}, {"measurement": "MIC90", "setting": "[4]", "result": 128, "unit": "mg/L"}, {"measurement": "MIC90", "setting": "[5]", "result": 128, "unit": "mg/L"}]}
